Measurements reported in patent US6433012B1, “Method for inhibiting inflammatory disease” (Large Scale Biology Corp., priority 1998, dated 2002).
“Also recorded” adds a separate entry of the source. Marks after values point to notes of the source that are not given here.

What was measured:
[1] = tested on: R3230Ac rat mammary carcinoma; experiment: Dorsal skin-fold window chamber assay; format: in vivo, Fischer 344 rats
Description: Details of the design and the surgical technique used for the rat dorsal skin-fold window chamber assay have been described elsewhere (Pappenfuss et al., Microvasc. Res. 18:311-318 (1979)). Briefly, the anatomical midline of the dorsal skin flap of an anesthetized rat was sutured to a pair of C-clamps and a skin-fold was retracted from the body surface by hanging the C-clamp on a stage. A circle of 1 cm of skin on each side of the skin-fold was surgically removed leaving two layers of fascia containing a few microvessels. After a pair of window frames was mounted, a piece of a R3230Ac rat mammary carcinoma (about 0.5 mm^3) from a donor rat was implanted onto the fascia in the window and the chamber was sealed with glass cover slips. On the fourth postoperative day, all tumor-containing windows were evaluated using an intravital microscope. The viability of the tumor implants, vasculature morphology, and blood flow in each window were crudely scored with 1-3 points assigned to each category. Only those windows with more than 6 points on this scale were included for further study. […] Tumor-window-bearing animals were randomly divided into treated and control groups that were stratified by the window scores. […] On day 12, the tumor windows were evaluated for the effect of the drug on tumor growth and vascularization. Images of whole tumors and tumor vasculature were obtained from four peripheral tumor areas, three to four central tumor areas, and from four areas in the surrounding granulating tissue, as described above. Again, measurements of various image parameters were made by an investigator who was unaware of the treatment protocol. Using the image analysis software, the cumulative length of all vessels in focus in each image was measured. Vascular length densities were calculated by dividing the total vessel length in a frame by the area of the frame. The diameters of all vessels in each image at high magnification were also measured and averaged.
All data were reported as means +/− the SEM for each group. The statistical significance of differences between treated and control groups was determined by using an unpaired t-test or the Mann-Whitney U-test. Statistically significant differences were defined as having a p<0.05.

[2] = tested on: angiogenesis induced by hFGF-B in the chick chorioallantoic membrane (CAM); experiment: Chick chorioallantoic membrane (CAM) assay, 14C-proline incorporation into collagenous protein; format: in vivo; set-up: inhibition of hFGF-B-induced angiogenesis: dose or concentration left out as unconfirmed
Description: This example illustrates the anti-angiogenic properties of methyl-3,5-diiodo-4-(4′-methoxyphenoxy)benzoate in the chick chorioallantoic membrane assay (CAM). The endpoint of the CAM assay was a quantitative determination of basement membrane biosynthesis by measuring the incorporation of ^14C-proline into Type IV collagenous protein.
The CAM assay involves the development of live chick embryos in Petri dishes under special sterile conditions. Therefore, only limited numbers of embryos can be used for evaluation of compounds in a single experiment. For this reason, two separate assays were conducted to test the three Biosource compounds at three concentrations per compound. In this assay, a known angiogenesis inhibitor, 2-methoxyestradiol (2-ME), was used as the positive control, and human fibroblast growth factor (hFGF) was used to induce angiogenesis in the CAM.
For testing, a minimum amount of acetone-methanol (1:1) was added to the test compounds for sterilization. The acetone-methanol mixture was then evaporated to dryness in a sterile hood. The compounds were dissolved dimethyl sulfoxide (DMSO) first and then diluted with saline containing methylcellulose. The final concentrations were 2% DMSO and 0.5% methylcellulose. All test solutions were added to each CAM in […].
Fresh fertile eggs were incubated for three days in a standard egg incubator. On Day 3, eggs were cracked under sterile conditions and embryos were placed in 20×100 mm plastic Petri dishes and cultivated at 37° C. in an embryo incubator with a water reservoir on the bottom shelf. Air was continuously bubbled into the water reservoir by using a small pump so that the humidity in the incubator was kept constant. Observations were made daily to ensure that all embryos were healthy. Dead or unhealthy embryos were removed from the incubator immediately to avoid contamination. On Day 9, a sterile silicone ring cup was placed on each CAM and […] of ^14C-proline with or without the test compound plus 2.5 ng of hFGF dissolved in saline containing 0.5% methylcellulose was delivered into each ring cup in a sterile hood. 2-ME was tested in parallel to serve as a reference compound. After addition of test materials, the embryos were returned to the incubator and cultivation continued. On Day 12, all embryos were transferred to a cold room at 4-10° C. The antiangiogenic effect of each test compound was determined by using the collagenase assay (Maragoudakis, et al., J. Pharm. Exp. Ther. 251:679-682 (1989)) to measure ^14C-proline incorporation into collagenous protein.
With the embryos placed on ice, a piece of CAM 10 mm in diameter was cut off under each ring cup and placed in a separate tube. To each tube was added 1.0 mL of phosphate-buffered saline (PBS, pH 7.3) containing 0.11 mg cycloheximide and 0.17 mg dipyridyl. The tubes were placed in a boiling water bath for 10 min and then cooled to room temperature. The PBS in each tube was discarded after centrifugation at 3000× g for 10 min. The CAM residue was washed once with 3 mL of 15% TCA and then three times with 3 mL of 5% TCA. Centrifugation was carried out as described above between each washing. At this point all non-protein bound radioactivity was removed, and the CAM containing the newly synthesized ^14C-collagenous protein was suspended in 0.9 mL of 0.1 N NaOH and 1.1 mL of HEPES buffer at pH 7.4. The pH of the sample was neutralized with 0.8 N HCl, using phenol red as indicator.
To digest the ^14C-collagenous protein, 7.5 units of collagenase and 500 nmol of calcium chloride in […] of HEPES buffer was added to the above samples, and mixtures were incubated at 37° C. for 4 h. The reaction was stopped by adding 1.0 mL of 20% TCA containing 5 mg of tannic acid into each tube. After vortex mixing, the samples were centrifuged at 3000× g for 10 min. […]

[3] = tested on: HeLa cells; experiment: Cellular microtubule networks; format: cell-based, human; settings: 10 μM for 1 h
[4] = Oral (gavage) toxicity in nude mice; format: in vivo; settings: doses as high as 1,000 mg/kg-day for 60 to 180 days
[5] = oral, postoperative days 5 to 11, no significant difference to controls
[6] = Table 1 experiment, dose 8.3 μg/CAM
[7] = Table 1 experiment, dose 25 μg/CAM
[8] = Table 1 experiment, dose 75 μg/CAM
[9] = Table 2 experiment, dose 8.3 μg/CAM
[10] = Table 2 experiment, dose 25 μg/CAM
[11] = Table 2 experiment, dose 75 μg/CAM

SMILES: COC(=O)c1cc(I)c(Oc2ccc(OC)cc2)c(I)c1 [BTO-956, methyl-3,5-diiodo-4-(4′-methoxyphenoxy)benzoate]
- reduction of tumor areas compared with controls ([1]; oral, postoperative days 5 to 11): more than 50%
- vascular diameter in central tumor areas [1, 5]: 35.84±9.63 μm
- vascular diameter in peripheral tumor areas [1, 5]: 32.19±4.46 μm
- vascular diameter in surrounding areas [1, 5]: 21.52±3.33 μm
- vascular length density in central tumor areas [1, 5]: 3.26±0.81 mm/mm^2
- vascular length density in surrounding granulating tissue [1, 5]: 8.71±1.05 mm/^2
- body weight loss or behavioral changes / toxic effects ([1]; tumor-bearing rats, oral 500 mg/kg, up to seven days, 500 mg/kg): No significant body weight loss or behavioral changes; also recorded: No serious toxic effects
- inhibition of hFGF-B-induced angiogenesis [2]: 30%
- % Inhibition [2, 6]: 0%
- ^14C-Proline Incorporated into Collagenous Protein (mean ± S.E.) [2, 6]: 6884 ± 1395 cpm/mg-protien
- % Inhibition [2, 7]: 19%
- ^14C-Proline Incorporated into Collagenous Protein (mean ± S.E.) [2, 7]: 5098 ± 785 cpm/mg-protien
- % Inhibition [2, 8]: 31%
- ^14C-Proline Incorporated into Collagenous Protein (mean ± S.E.) [2, 8]: 4374 ± 651 cpm/mg-protien
- % Inhibition [2, 9]: 10%
- ^14C-Proline Incorporated into Collagenous Protein (mean ± S.E.) [2, 9]: 10138 ± 1625 cpm/mg-protien
- % Inhibition [2, 10]: 18%
- ^14C-Proline Incorporated into Collagenous Protein (mean ± S.E.) [2, 10]: 9100 ± 1664 cpm/mg-protien
- % Inhibition [2, 11]: 32%
- ^14C-Proline Incorporated into Collagenous Protein (mean ± S.E.) [2, 11]: 7534 ± 1099^a cpm/mg-protien
- cellular microtubule networks [3]: aberrant microtubule networks
- gross pathology [4]: No other gross pathology
- liver and kidney weights [4]: only slight and transient increases
